Measured values as given in patent US20100080790A1, “STERILIZATION USING HIGH-PRESSURE CARBON DIOXIDE” (University of South Carolina, priority 2005, published 2010).
Values joined by “and” are separate entries in the source; they are usually repeats but may differ in a detail not shown here. Equal entries are not always repeated. “Also recorded” adds a separate entry of the source. Where two headings read alike, the source gives them in different places.

Tests used:
[1] = test system: B. atrophaeus ATCC 9372 spores
[2] = test system: B. pumilus ATCC 27142 spores; experiment: Log reduction of B. pumilus spores on spore strips treated with high-pressure/supercritical CO2 with or without additives, colony counting; assay type: cell-based
[3] = test system: B. anthracis ΔSterne-1 spores
[4] = test system: Vegetative G. stearothermophilus cells; conditions: 1.5-hour exposure, 28 bar, 25 °C; cited from earlier work
[5] = test system: G. stearothermophilus spores; conditions: cited from earlier work
Lactobacillus plantarum = conditions: high-pressure CO2 treatment, suspension in distilled water at pH 6.0; cited from earlier work
[6] = additive with CO2, conditions of Table 2
[7] = additive with CO2, 40 °C, 276 bar, 4 hr

## OO [30% H2O2, hydrogen peroxide]
[1]
  Log reduction: 6.25
[2]
  LOG REDUCTION: 4.47 ± 0.64 log and 4.60 ± 0.02 log and 6.28 ± 0.46 log and 4.45 ± 0.31 log
  deactivation in replicate experiments (in words): complete deactivation in two of the three replicate experiments
  effectiveness of additive in deactivating B. pumilus spores (in words): highly effective; also recorded: the most effective additive among the additives examined
[3]
  Log reduction: 5.74

## CCO [70% ETHANOL, ethanol]
[2]; [6]
  effectiveness of additive in deactivating B. pumilus spores (in words): Neither bulk water, 5 μL of 70% ethanol, nor 5 μL of 70% isopropanol resulted in the required log reduction
[2]; [7]
  LOG REDUCTION: 0.27 ± 0.16 log
[2]; dense-phase CO2, at 40 °C
  effectiveness of additive (in words): neither bulk water, nor ethanol, nor isopropanol were effective additives

## CC(C)O [70% ISOPROPANOL, isopropanol]
[2]; [6]
  effectiveness of additive in deactivating B. pumilus spores (in words): Neither bulk water, 5 μL of 70% ethanol, nor 5 μL of 70% isopropanol resulted in the required log reduction
[2]; [7]
  LOG REDUCTION: 0.17 ± 0.06 log
[2]; dense-phase CO2, at 40 °C
  effectiveness of additive (in words): neither bulk water, nor ethanol, nor isopropanol were effective additives

## O [BULK WATER, water]
[2]
  effectiveness of additive (in words): neither bulk water, nor ethanol, nor isopropanol were effective additives
  effectiveness of additive in deactivating B. pumilus spores (in words): Neither bulk water, 5 μL of 70% ethanol, nor 5 μL of 70% isopropanol resulted in the required log reduction

## O=C=O [CO2, carbon dioxide]
[4]
  log reduction of vegetative cells: more than 6 log
[5]
  spores remained viable: 80%
Lactobacillus plantarum
  log reduction: more than 7 log
[2]
  log reduction: 3.90 log
[2]; wetted spore strips with CO2, 4 hr, 103 bar, 60 °C
  LOG REDUCTION: 1.91 ± 0.23 log
[2]; wetted spore strips with CO2, 4 hr, 276 bar, 50 °C
  LOG REDUCTION: 0.58 ± 0.04 log
[2]; wetted spore strips with CO2, 4 hr, 276 bar, 60 °C
  LOG REDUCTION: 3.06 ± 0.17 log
[2]; wetted spore strips with CO2, 4 hr, 276 bar, 80 °C
  LOG REDUCTION: 3.02 ± 0.07 log
